US12383534B2, “Methods for treating cancer” (REGENTS OF THE UNIVERSITY OF MINNESOTA, priority 2021, dated 2025)

Tests used:
[1] = tested on: Kitra-SRS cells (CIC-DUX4 sarcoma cell line); test: Cell viability (ATP) assay in Kitra-SRS cells; format: cell-based, human; conditions: day 2
Experimental: Basal media were purchased from HyClone, fetal bovine serum (FBS) was from PeakSerum (Ps-FB3, lot 293Q16), and Glutamax (Glu) and Penicillin/Streptomycin (P/S) were from GIBCO. NCC-CDS-X1 (CIC-DUX4 sarcoma cell line, a generous gift from Tadashi Kondo) cell line was cultured in RPMI with 10% FBS, Glu and P/S, Kitra-SRS (CIC-DUX4 sarcoma cell line, a generous gift from Hidetatsu Otani), 3T3, 293T and C2C12 cell lines were cultured in DMEM/10% FBS/Glu/P/S. The immortalized human myoblast LHCN-M2 cell line was cultured in proliferation medium: F10 supplemented with 20% FBS, 2-mercaptoethanol 1× (GIBCO), 10^−9 M dexamethasone (Sigma), 10 ng/mL bFGF (Peprotech), and Glu/P/S. All cells were cultured at 37° C. in a 5% CO2 atmosphere.
Cell lines were plated in a 96 well dish (1×10^5 cells/well), and the following day were treated with iP300w or its stereoisomers. ATP assays were performed using CellTiter-Glo® Luminescent Cell Viability Assay (Promega) according to the manufacturer's instructions. Luminescence was analyzed on POLARstar Optima Microplate Reader (BMG Labtech, Offenburg, Germany).
To evaluate the consequences of iP300w treatment of CDS cells, its effects on both monolayer cultures as well as 3D spheres was determined in both CDS cell lines. […] Using the cell viability assay, it was determined that 0.003 μM was the lowest effective concentration on day 2 in both lines (FIG. 2B).

Kitra-SRS cells = test: Immunofluorescence for Ki-67 in Kitra-SRS cells; format: cell-based, human; conditions: 24 hours, 0.3 μM
Experimental: (§1) For western blot analyses, cells were lysed with RIPA buffer supplemented with protease inhibitor cocktail (Complete, Roche), and proteins were separated on 10% SDS-PAGE gels, then transferred to PVDF membranes. Antibodies were diluted in 5% skim milk in TBST and incubated overnight at 4° C. or 1 hour at RT. An appropriate secondary HRP conjugated antibody was incubated for 1 hour at RT. Membranes were then washed with TBST, and signal was visualized using Pierce ECL western blotting substrate (Thermo Scientific). For immunofluorescence, cells cultured in 96 well plates were fixed in 4% PFA for 10 min., washed twice with PBS, permeabilized with 0.3% Triton X for 30 min, and blocked with 3% BSA for 1 hour at R/T. Primary antibodies were diluted in 3% BSA and incubated o/n at 4° C. An appropriate conjugated secondary antibody was applied for 60 min at RT. Nuclei were visualized using DAPI (1:5000, Sigma). […]

p300 and CBP = conditions: in vitro and in vivo; cited from earlier work
[2] = tested on: NCC-CDS-X1 subcutaneous xenograft tumors; test: NCC-CDS-X1 xenograft tumor growth in mice; format: in vivo, mouse; conditions: 1.4 mg/kg b.i.d. intraperitoneally from day 9, 12 days
Experimental: Mice were maintained, and in vivo experiments were conducted at the University of Minnesota Research Animal Resources facility, under a protocol (1903-36866A) approved by IACUC. Immunodeficient NSG-MDX mice (n=8) were transplanted with 1×10^7 NCC-CDS-X1 cells resuspended in 100 uL of a mixture of medium and Matrigel (Corning). Visible tumor masses at the sites of injection were detected on day 9 after transplantation. All the injected mice developed tumors. At this point, the mice were randomized into two groups, control and iP300w treated, and initial measurement of the tumors was performed. iP300w was initially dissolved in DMSO at 10 mM and then diluted in 100 uL PBS. Each mouse received 1.4 mg/kg iP300w intraperitoneally twice daily or vehicle in the control group. Tumor size was recorded every 4 days and the volume was calculated using the formula (length×width^2)/2.
Finally, the effectiveness of iP300w to suppress CDS tumor growth in vivo was assessed. NCC-CDS-X1 cells were used to generate subcutaneous xenograft tumors in immunodeficient NSG mice (n=8). When tumors were palpable (day 9) iP300w injections (1.4 mg/kg b.i.d.) were initiated and the progression of tumor growth was monitored.

[3] = tested on: global H3K18 and H3K27 acetylation (p300/CBP); test: Western blot for acetylated H3K18 and H3K27 in cell lines overexpressing CIC-DUX4; format: cell-based, mouse and human; conditions: all analyzed CIC-DUX4 overexpressing cell lines, 18 hours
Experimental: as §1

NCC-CDS-X1 spheres = test: Spheroid assay; format: cell-based, human; conditions: day 4 and 8
Experimental: For spheroid formation assays, 2.5×10^4 NCC-CDS-X1 cells were seeded into 96-well plates (96-well Clear Flat Bottom Ultra-Low Attachment Microplate; Corning, Inc., Corning, NY, USA) in MEM/10% FBS media. Treatment with iP300w was started two days after the plating when the cells formed compact spheres.

CNC(=O)Cn1cc(-c2ccc3c(c2)[C@H](F)C[C@]32NC(=O)N(CC(=O)N(Cc3ccc(F)cc3)[C@@H](C)C(F)(F)F)C2=O)cn1 (single isomer, unassigned) [iP300w]
lowest effective concentration in cell viability assay [1]: 0.003 µM
Ki-67 positive staining (Kitra-SRS cells): almost complete absence of Ki-67 positive staining
inhibition of acetylation by p300 and CBP (p300 and CBP): inhibit acetylation by p300 and CBP both in vitro and in vivo
treated mice with tumor growth halted [2]: 5/8
treated mice with tumor growth significantly diminished [2]: 3/8
effect on CIC-DUX4-induced global H3K18 and H3K27 acetylation [3]: abolished
effect on CDS cell sphere formation and growth (NCC-CDS-X1 spheres): dose and time inhibitory effect
